From patent US5707963A, “Methods of using growth inhibitory peptides” (Health Research, Incorporated, priority 1996, dated 1998)
Values joined by “and” are separate entries in the source; they are usually repeats but may differ in a detail not shown here. Identical values can stand only once. Like-named read-outs stand apart in the source and are kept apart here.

Columns and labels:
[1] = system: estrogen-stimulated growth of mouse uterus; type: in vivo
Method: An in vivo wet weight bioassay measuring inhibition of estrogen-stimulated growth of uteri was performed. The procedure of Mizejewski et al. was used for the wet weight assay (see Mizejewski, G. J. et al. (1983); Mizejewski, G. J. et al. (1986); Mizejewski, G. J. and A. S. Warner (1989); Mizejewski, G. J. et al., "Separation of the Estrogen-Activated Growth-Regulatory Forms of Alpha-Fetoprotein in Mouse Amniotic Fluid," Biol of Reprod 42:887-898 (1990); and Allen, S.H.G. et al. (1993)).
Briefly, the synthesized powdered peptide was reconstituted in saline (1 mg/ml) to form a stock solution of the GIP. The stock solution was appropriately diluted to provide dosages of 25 to 100 ng/mouse. 0.1 ml of the appropriately diluted GIP was injected intraperitoneally into 15-18 day old Nya:NYLAR female mice. Control mice were injected with saline or other peptides, including a peptide encoded by a portion of the amino acid sequence of albumin and a random 34 amino acid peptide. 1 hour after this first injection, an estrogen challenge of 0.5 micrograms of E2 in 0.1 ml saline was given to determine the change in uterine responsiveness to E2 resulting from exposure to the first injection. 23 hours after the second injection, uteri were dissected, trimmed free of connective tissue and immediately weighed. The uterine wet weights were normalized to mouse body weight (mg uterine weight/g of body weight) to compensate for differences in body weight among litters of the same age. Percent inhibition of estrogen-stimulated uterine growth was calculated as described by Mizejewski et al. (1983).
Two separate bioassays for inhibition of estrogen-stimulated growth were used. The first was an in vivo bioassay measuring an estrogen-induced increase in wet weight of the immature mouse uterus in a 24-hour determination. Dosages of peptide fragments ranged from 10 to 100 ng, and the %inhibition given in Table 6 represents the peak assay point of the dilution series.

[2] = system: estrogen-stimulated growth of mouse uterus; type: in vivo; remark: listed apart in the source
[3] = system: human MCF-7 breast cancer cells; assay: In vitro MCF-7 focus assay (estrogen-induced foci formation); type: cell-based; settings: for Percent Foci Inhibition: MCF-7 Cell Culture
From the text: In an in vitro bioassay, the MCF-7 focus assay was used for preliminary evaluation of the GIP preparation for both estrogenicity and antiestrogenicity. One of the major consequences of human estrogen exposure is induction of cell proliferation and subsequent structural rearrangement of the acini, a process based on the interactions of multiple estrogen dependent gene expressions. […] The estrogen dependent MCF-7 cell proliferation is primarily a postconfluent event which leads to development of multicellular aggregates (foci). […] The procedure of Gierthy et al. was used for the MCF-7 assay of the GIP (see Gierthy, J. F. et al., "Correlation of in Vitro and in Vivo Growth Suppression of MCF-7 Human Breast Cancer by 2,3,7,8-Tetrachlorodibenzo-p-dioxin" Cancer Research 53:3149-3153 (1993)).
Briefly, stock MCF-7 cells were suspended in medium (see Gierthy, J. F. et al. 1993) after treatment with trypsin (0.25%) and seeded into 24-well plastic tissue culture plates. The MCF-7 cells were seeded (2 cm^2 /well) at a density of b 10^5 cells/well in 1 ml of medium, and incubated at 37° C. in a humidified atmosphere containing 5% CO2. The cultures were refed at 24 hours and every 4-5 days thereafter with 2 ml medium supplemented with 1×10^-9 M 17β-estradiol, a concentration which induces maximum focus development, and various concentrations of GIP (10^-8 M-10^-13 M) in nonestrogenic DC5 medium and estrogenic DF5 medium which contains high levels of bovine alpha-fetoprotein (5% fetal bovine serum supplemented). After 14 days the cultures were fixed with formalin in pH 7.4 buffer (see Gierthy, J. F. et al. 1993) and stained with 1% rhodamine B. Foci were counted by using an automated colony counter modified to magnify the image of the microscopic multicellular foci. The foci retained the red rhodamine B stain to a greater extent than did surrounding monolayer cells, affording appropriate contrast for enumeration.

Substance: Leu Ser Glu Asp Lys Leu Leu Ala Cys Gly Glu Gly Ala Ala Asp Ile ile Ile Gly His Leu Cys Ile Arg His Glu Met Thr Pro Val Ash Pro Gly Val (LSEDKLLACGEGAADIIIGHLCIRHEMTPVNPGV) [GIP]
- inhibition of estrogen-stimulated growth (range over Table 1) ([1]; 25 to 100 ng/mouse, immature and adult mouse uterus): 33-79%
- Percent Growth Inhibition ([1]; immature mouse uterus, 25 ng per mouse i.p., E2 challenge 0.5 micrograms): 33%
- Percent Growth Inhibition ([1]; immature mouse uterus, 25 ng per mouse, added human AFP): 42%
- Percent Growth Inhibition ([1]; immature mouse uterus, 50 ng per mouse i.p., E2 challenge 0.5 micrograms): 38% and 37% and 30-40%
- Percent Growth Inhibition ([1]; immature mouse uterus, 100 ng per mouse i.p., E2 challenge 0.5 micrograms): 35%
- inhibition of estrogen-stimulated growth ([1]; immature mouse uterus, peptide diluted 2,000-fold or more): 30-40%
- dose with demonstrable activity without E2 activation prior to inoculation ([1]; mouse contains the circulating ligand (estrogen)): 100 ng/mouse
- activity in adult cycling mice ([2]; adult cycling mice, with and without addition of purified human full-length AFP): active
- Percent Growth Inhibition ([2]; adult mouse uterus, 25 ng per mouse): 66%
- Percent Growth Inhibition ([2]; adult mouse uterus, 100 ng per mouse, added human AFP): 79%
- inhibition of estrogen-stimulated growth ([2]; adult mouse uterus, peptide diluted 2,000-fold or more): 80%
- inhibition in the MCF-7 cell culture assays ([3]; 10^-10 to 10^-13 M peptide concentration): 60-70%
- Percent Foci Inhibition ([3]; 14 days): 60-70%
- Percent Foci Inhibition ([3]; peptide molarity 10^-11 -10^-13, 14 days): 60-74% and 50-60%
- Percent Foci Inhibition ([3]; peptide molarity 10^-12, added human AFP): 40%
- maximum inhibition of DF5 induced foci development ([3]; estrogenic DF5 medium, GIP 10^-10 to 10^-13 M): 74%
- concentration at which estrogenic foci induction starts ([3]; nonestrogenic DC5 medium, dose responsive): 10^-8 M
